Source: patent US20150105252A1, “SUBSTITUTED PYRAZOLES AS HERBICIDES” (E I DU PONT DE NEMOURS AND COMPANY, priority 2013, published 2015)

Assays:
[1] = test system: nutsedge, yellow; assay: Test C preemergence; assay type: in vivo, Cyperus esculentus; settings: for Plant response rating (scale of 0 to 100), Nutsedge, Yellow: 250 g ai/ha
In short: (§1)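 Seeds sown in loam–sand blend and treated preemergence with test chemicals in non-phytotoxic solvent with surfactant; postemergence plants in peat-based medium, treated at 2–18 cm (1- to 4-leaf stage). Greenhouse 13 to 15 days, then visual rating versus controls, 0 (no effect) to 100 (complete control).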

[2] = test system: foxtail, giant; assay: Test A postemergence; assay type: in vivo, Setaria faberii
In short: (§2)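 Visual injury rating, 0–100 (0 no effect, 100 complete control), vs untreated controls ~10 days after treatment in greenhouse. Pre: directed soil spray on seeded loam/sand. Post: 2–10 cm plants, 1–2 leaf stage. Formulation: non-phytotoxic solvent mix + surfactant.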

[3] = test system: soybean; assay: Test C preemergence; assay type: in vivo, Glycine max; settings: for Plant response rating (scale of 0 to 100), Soybean: 250 g ai/ha
From the text: Seeds of plant species selected from blackgrass (Alopecurus myosuroides), ryegrass, Italian (Italian ryegrass, Lolium multiflorum), wheat (winter wheat, Triticum aestivum), galium (catchweed bedstraw, Galium aparine), corn (Zea mays), crabgrass, large (large crabgrass, Digitaria sanguinalis), foxtail, giant (giant foxtail, Setaria faberii), johnsongrass (Sorghum halepense), lambsquarters (Chenopodium album), morningglory (Ipomoea coccinea), nutsedge, yellow (yellow nutsedge, Cyperus esculentus), pigweed (redroot pigweed, Amaranthus retroflexus), ragweed (common ragweed, Ambrosia elation), soybean (Glycine max), barnyardgrass (Echinochloa crus-galli), oilseed rape (Brassica napus), waterhemp (common waterhemp, Amaranthus rudis), oat, wild (wild oat, Avena fatua), kochia (Kochia scoparia), Surinam grass (Brachiaria decumbens), foxtail, green (green foxtail, Setaria viridis), goosegrass (Eleusine indica), bromegrass, downy (downy bromegrass, Bromus tectorum), nightshade (eastern black nightshade, Solanum ptycanthum), cocklebur (common cocklebur, Xanthium strumarium), cupgrass, woolly (woolly cupgrass, Eriochloa villosa), bermudagrass (Cynodon dactylon), sunflower, (common oilseed sunflower, Helianthus annuus), Russian thistle (Salsola kali), and velvetleaf (Abutilon theophrasti) were planted into a blend of loam soil and sand and treated preemergence with test chemicals formulated in a non-phytotoxic solvent mixture which included a surfactant.
At the same time, plants selected from these crop and weed species and also chickweed (common chickweed, Stellaria media), canarygrass (littleseed canarygrass, Phalaris minor), and deadnettle (henbit deadnettle, Lamium amplexicaule), were planted in pots containing Redi-Earth® planting medium (Scotts Company, 14111 Scottslawn Road, Marysville, Ohio 43041) comprising spaghnum peat moss, vermiculite, wetting agent and starter nutrients and treated with postemergence applications of test chemicals formulated in the same manner. Plants ranged in height from 2 to 18 cm (1- to 4-leaf stage) for postemergence treatments. Treated plants and controls were maintained in a greenhouse for 13 to 15 days, after which time all species were compared to controls and visually evaluated. Plant response ratings, summarized in Table C, are based on a scale of 0 to 100 where 0 is no effect and 100 is complete control. A dash (-) response means no test result.

[4] = test system: wheat; assay: Test A preemergence; assay type: in vivo, Triticum aestivum; settings: preemergence
In short: as §2

[5] = test system: barnyardgrass; assay: Test A postemergence; assay type: in vivo, Echinochloa crus-galli
In short: as §2

[6] = test system: morningglory; assay: Test C preemergence; assay type: in vivo, Ipomoea coccinea; settings: for Plant response rating (scale of 0 to 100), Morningglory: 250 g ai/ha
In short: as §1

[7] = test system: pigweed; assay: Test C preemergence; assay type: in vivo, Amaranthus retroflexus; settings: for Plant response rating (scale of 0 to 100), Pigweed: 250 g ai/ha
In short: as §1

[8] = test system: blackgrass; assay: Test C preemergence; assay type: in vivo, Alopecurus myosuroides; settings: for Plant response rating (scale of 0 to 100), Blackgrass: 250 g ai/ha
In short: as §1

[9] = test system: pigweed; assay: Test A postemergence; assay type: in vivo, Amaranthus retroflexus
In short: as §2

[10] = test system: morningglory; assay: Test A postemergence; assay type: in vivo, Ipomoea spp.
In short: as §2

[11] = test system: velvetleaf; assay: Test C preemergence; assay type: in vivo, Abutilon theophrasti; settings: for Plant response rating (scale of 0 to 100), Velvetleaf: 250 g ai/ha
In short: as §1

[12] = test system: sedge, umbrella; assay: Test B flood; assay type: in vivo, Cyperus difformis; settings: 250 g ai/ha, visual rating on 0 to 100 scale (0 no effect, 100 complete control), 13 to 15 days
In short: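 Flooded-pot test: compound dosed into 3 cm of standing water above soil when plants had two leaves. Visual control ratings (0–100) versus untreated plants after 13–15 d.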

[13] = test system: corn; assay: Test A preemergence; assay type: in vivo, Zea mays; settings: preemergence
In short: as §2

[14] = preemergence, 31 g ai/ha, visual rating, scale 0 to 100 (0 no effect, 100 complete control), 13 to 15 days
[15] = preemergence, 62 g ai/ha, 13 to 15 days, scale 0 to 100, 0 = no effect, 100 = complete control
[16] = Postemergence, 500 g ai/ha, visual rating after approx. 10 days, 0 to 100 scale (0 no effect, 100 complete control)
[17] = postemergence, 125 g ai/ha, about 10 days, visual rating on 0 to 100 scale (0 no effect, 100 complete control)
[18] = preemergence, 125 g ai/ha, scale 0 to 100, 0 is no effect, 100 is complete control
[19] = 125 g ai/ha, visual injury, 0 to 100 scale, approx. 10 days
[20] = 500 g ai/ha, visual injury after approx. 10 days, 0 to 100 scale (0 no effect, 100 complete control)
[21] = Preemergence, 16 g ai/ha, scale 0 to 100

CCc1cc(C(=O)NC2CC2)nn1Cc1ccnc(OC(F)F)c1 [Compound 98]
98: Plant response rating (scale of 0 to 100), Soybean ([3]; Preemergence) | Soybean plant response rating [3, 18]
90: Foxtail, Giant plant response rating [2, 16] | Foxtail, Giant plant response rating [2, 17] | Wheat plant response rating [4, 20] | Barnyardgrass plant response rating [5, 16] | Barnyardgrass plant response rating [5, 17] | Morningglory plant response rating [10, 16] | Morningglory plant response rating [10, 17]
95: Plant response rating (scale of 0 to 100), Nutsedge, Yellow ([1]; Preemergence) | Plant response rating, Morningglory [6, 15]
70: Plant response rating, Soybean [3, 15] | Blackgrass plant response rating [8, 14] | Corn plant response rating [13, 19]
30: Nutsedge, Yellow plant response rating [1, 14] | Soybean plant response rating [3, 14] | Wheat plant response rating [4, 19]
100: Plant response rating (scale of 0 to 100), Morningglory ([6]; Preemergence) | Morningglory plant response rating [6, 18] | Plant response rating (scale of 0 to 100), Pigweed ([7]; Preemergence) | Pigweed plant response rating [7, 14] | Plant response rating, Pigweed [7, 15] | Pigweed plant response rating [7, 18] | Plant response rating (scale of 0 to 100), Blackgrass ([8]; Preemergence) | Plant response rating, Blackgrass [8, 15] | Blackgrass plant response rating [8, 18] | Pigweed plant response rating [9, 16] | Pigweed plant response rating [9, 17] | Plant response rating (scale of 0 to 100), Velvetleaf ([11]; Preemergence) | Velvetleaf plant response rating [11, 14] | Plant response rating, Velvetleaf [11, 15] | Velvetleaf plant response rating [11, 18]
45: Morningglory plant response rating [6, 14]
75: Plant response rating, Nutsedge, Yellow [1, 15]
80: Plant response rating, Sedge, Umbrella [12] | Corn plant response rating [13, 20]

CCc1cc(C(=O)NOC(C)C)nn1Cc1ccnc(C(F)(F)F)c1 [Compound 101]
0: Plant response rating, Soybean [3, 21] | Plant response rating, Velvetleaf [11, 21]
90: Foxtail, Giant plant response rating [2, 16] | Barnyardgrass plant response rating [5, 16] | Plant response rating, Pigweed [7, 15] | Plant response rating, Blackgrass [8, 15] | Pigweed plant response rating [9, 16]
75: Nutsedge, Yellow plant response rating [1, 18] | Blackgrass plant response rating [8, 14] | Plant response rating, Velvetleaf [11, 15]
5: Plant response rating, Nutsedge, Yellow [1, 21] | Nutsedge, Yellow plant response rating [1, 14] | Soybean plant response rating [3, 14]
25: Plant response rating, Nutsedge, Yellow [1, 15]
35: Velvetleaf plant response rating [11, 14]
70: Wheat plant response rating [4, 19] | Corn plant response rating [13, 19]
50: Soybean plant response rating [3, 18]
80: Foxtail, Giant plant response rating [2, 17] | Barnyardgrass plant response rating [5, 17] | Pigweed plant response rating [7, 14]
85: Morningglory plant response rating [6, 14]
40: Plant response rating, Soybean [3, 15] | Plant response rating, Morningglory [6, 21]
30: Plant response rating, Blackgrass [8, 21]
60: Pigweed plant response rating [9, 17] | Plant response rating, Sedge, Umbrella [12]
100: Wheat plant response rating [4, 20] | Plant response rating, Morningglory [6, 15] | Morningglory plant response rating [6, 18] | Pigweed plant response rating [7, 18] | Morningglory plant response rating [10, 16] | Morningglory plant response rating [10, 17] | Velvetleaf plant response rating [11, 18] | Corn plant response rating [13, 20]
20: Plant response rating, Pigweed [7, 21]
95: Blackgrass plant response rating [8, 18]

CCc1cc(C(=O)NC(C)C)nn1Cc1ccnc(C(F)(F)F)c1 [Compound 103]
85: Nutsedge, Yellow plant response rating [1, 18]
95: Plant response rating (scale of 0 to 100), Nutsedge, Yellow ([1]; Preemergence)
70: Corn plant response rating [13, 19]
100: Plant response rating (scale of 0 to 100), Soybean ([3]; Preemergence) | Plant response rating, Soybean [3, 15] | Soybean plant response rating [3, 18] | Wheat plant response rating [4, 20] | Plant response rating (scale of 0 to 100), Morningglory ([6]; Preemergence) | Morningglory plant response rating [6, 14] | Plant response rating, Morningglory [6, 15] | Morningglory plant response rating [6, 18] | Plant response rating (scale of 0 to 100), Pigweed ([7]; Preemergence) | Pigweed plant response rating [7, 14] | Plant response rating, Pigweed [7, 15] | Pigweed plant response rating [7, 18] | Plant response rating (scale of 0 to 100), Blackgrass ([8]; Preemergence) | Blackgrass plant response rating [8, 14] | Plant response rating, Blackgrass [8, 15] | Blackgrass plant response rating [8, 18] | Morningglory plant response rating [10, 16] | Plant response rating (scale of 0 to 100), Velvetleaf ([11]; Preemergence) | Velvetleaf plant response rating [11, 14] | Plant response rating, Velvetleaf [11, 15] | Velvetleaf plant response rating [11, 18]
80: Plant response rating, Nutsedge, Yellow [1, 15]
40: Nutsedge, Yellow plant response rating [1, 14] | Wheat plant response rating [4, 19]
90: Foxtail, Giant plant response rating [2, 16] | Foxtail, Giant plant response rating [2, 17] | Soybean plant response rating [3, 14] | Barnyardgrass plant response rating [5, 16] | Barnyardgrass plant response rating [5, 17] | Pigweed plant response rating [9, 16] | Pigweed plant response rating [9, 17] | Morningglory plant response rating [10, 17] | Plant response rating, Sedge, Umbrella [12] | Corn plant response rating [13, 20]

CCOc1cc(C(=O)NCC(F)(F)F)nn1Cc1ccnc(C(F)(F)F)c1 [Compound 104]
60: Corn plant response rating [13, 19]
80: Corn plant response rating [13, 20]
0: Plant response rating, Sedge, Umbrella [12]
98: Plant response rating (scale of 0 to 100), Nutsedge, Yellow ([1]; Preemergence) | Nutsedge, Yellow plant response rating [1, 18] | Plant response rating (scale of 0 to 100), Soybean ([3]; Preemergence) | Soybean plant response rating [3, 18]
100: Wheat plant response rating [4, 20] | Plant response rating (scale of 0 to 100), Morningglory ([6]; Preemergence) | Morningglory plant response rating [6, 14] | Plant response rating, Morningglory [6, 15] | Morningglory plant response rating [6, 18] | Plant response rating (scale of 0 to 100), Pigweed ([7]; Preemergence) | Pigweed plant response rating [7, 14] | Plant response rating, Pigweed [7, 15] | Pigweed plant response rating [7, 18] | Pigweed plant response rating [9, 16] | Pigweed plant response rating [9, 17] | Morningglory plant response rating [10, 16] | Morningglory plant response rating [10, 17] | Plant response rating (scale of 0 to 100), Velvetleaf ([11]; Preemergence) | Velvetleaf plant response rating [11, 14] | Plant response rating, Velvetleaf [11, 15] | Velvetleaf plant response rating [11, 18]
95: Plant response rating, Nutsedge, Yellow [1, 15] | Plant response rating, Soybean [3, 15]
85: Soybean plant response rating [3, 14] | Blackgrass plant response rating [8, 14]
70: Nutsedge, Yellow plant response rating [1, 14]
90: Foxtail, Giant plant response rating [2, 16] | Foxtail, Giant plant response rating [2, 17] | Wheat plant response rating [4, 19] | Barnyardgrass plant response rating [5, 16] | Barnyardgrass plant response rating [5, 17] | Plant response rating (scale of 0 to 100), Blackgrass ([8]; Preemergence) | Plant response rating, Blackgrass [8, 15] | Blackgrass plant response rating [8, 18]
